Experimental data published in ChEMBL document CHEMBL1649182, “Binding of faropenem and other beta-lactam agents to penicillin-binding proteins of pneumococci with various beta-lactam susceptibilities” (Antimicrob Agents Chemother, 2009).
Converted amounts (≈) assume the structure as drawn.

Assays:
Streptococcus pneumoniae [1] = assay: Antimicrobial activity against penicillin-resistant Streptococcus pneumoniae 2527 by CLSI method; format: functional
Streptococcus pneumoniae [2] = assay: Antimicrobial activity against penicillin-resistant Streptococcus pneumoniae 3413 by CLSI method; format: functional
Streptococcus pneumoniae [3] = assay: Antimicrobial activity against Streptococcus pneumoniae 1564 by CLSI method; format: functional
[4] = target: T1, Penicillin-binding protein 1A (Streptococcus pneumoniae serotype 4 (strain ATCC BAA-334 / TIGR4), UniProt Q04707); assay: Displacement of Biocillin FL from Streptococcus pneumoniae 3413 PBP1A
T1 sequence (Q04707 whole entry): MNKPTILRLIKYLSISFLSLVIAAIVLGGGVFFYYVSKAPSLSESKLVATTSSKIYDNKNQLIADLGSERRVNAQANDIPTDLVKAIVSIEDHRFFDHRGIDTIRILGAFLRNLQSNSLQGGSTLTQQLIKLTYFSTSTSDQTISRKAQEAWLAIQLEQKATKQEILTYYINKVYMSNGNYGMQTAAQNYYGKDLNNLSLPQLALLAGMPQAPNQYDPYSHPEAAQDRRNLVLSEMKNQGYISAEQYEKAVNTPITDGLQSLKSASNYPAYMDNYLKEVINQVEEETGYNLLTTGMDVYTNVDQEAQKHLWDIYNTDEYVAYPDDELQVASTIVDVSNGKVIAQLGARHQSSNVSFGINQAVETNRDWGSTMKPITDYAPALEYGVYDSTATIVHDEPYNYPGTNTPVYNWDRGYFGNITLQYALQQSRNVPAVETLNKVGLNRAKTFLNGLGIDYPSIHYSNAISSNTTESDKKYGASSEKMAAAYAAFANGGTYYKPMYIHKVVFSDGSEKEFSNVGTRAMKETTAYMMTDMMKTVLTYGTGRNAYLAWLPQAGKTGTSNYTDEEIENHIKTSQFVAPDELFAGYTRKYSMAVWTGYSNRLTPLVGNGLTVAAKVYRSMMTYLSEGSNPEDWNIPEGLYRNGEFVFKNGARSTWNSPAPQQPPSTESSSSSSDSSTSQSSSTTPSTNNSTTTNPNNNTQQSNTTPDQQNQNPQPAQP

[5] = target: T1, Penicillin-binding protein 1A; assay: Displacement of Biocillin FL from Streptococcus pneumoniae 1077 PBP1A
[6] = Displacement of Biocillin FL from Streptococcus pneumoniae 24 PBP1B
[7] = Displacement of Biocillin FL from Streptococcus pneumoniae 3676 PBP1B
[8] = Displacement of Biocillin FL from Streptococcus pneumoniae 3243 PBP1B
[9] = target: T2, Penicillin-binding protein 2x (Streptococcus pneumoniae serotype 4 (strain ATCC BAA-334 / TIGR4), UniProt P14677); assay: Displacement of Biocillin FL from Streptococcus pneumoniae 3413 PBP2X
T2 sequence (P14677 whole entry): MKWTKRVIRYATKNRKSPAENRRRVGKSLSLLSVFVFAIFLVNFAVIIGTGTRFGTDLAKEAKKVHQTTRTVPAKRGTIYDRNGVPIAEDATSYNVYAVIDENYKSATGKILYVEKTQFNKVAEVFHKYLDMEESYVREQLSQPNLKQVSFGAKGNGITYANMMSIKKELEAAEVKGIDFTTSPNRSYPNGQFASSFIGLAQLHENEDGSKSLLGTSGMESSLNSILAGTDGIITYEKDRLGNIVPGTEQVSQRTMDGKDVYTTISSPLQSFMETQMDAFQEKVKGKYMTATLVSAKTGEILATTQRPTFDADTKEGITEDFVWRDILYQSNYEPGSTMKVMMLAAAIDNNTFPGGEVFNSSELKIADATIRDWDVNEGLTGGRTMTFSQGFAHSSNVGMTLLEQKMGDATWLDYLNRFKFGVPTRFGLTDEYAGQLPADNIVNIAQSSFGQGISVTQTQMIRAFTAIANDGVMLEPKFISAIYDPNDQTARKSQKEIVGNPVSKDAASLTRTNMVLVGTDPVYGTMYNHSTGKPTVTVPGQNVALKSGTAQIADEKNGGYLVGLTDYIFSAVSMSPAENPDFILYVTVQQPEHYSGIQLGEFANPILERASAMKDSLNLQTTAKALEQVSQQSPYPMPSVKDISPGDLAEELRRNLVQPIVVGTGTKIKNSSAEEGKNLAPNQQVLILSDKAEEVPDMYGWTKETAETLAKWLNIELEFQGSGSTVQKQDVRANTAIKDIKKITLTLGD

[10] = target: T2, Penicillin-binding protein 2x; assay: Displacement of Biocillin FL from Streptococcus pneumoniae 3243 PBP2X
[11] = target: T2, Penicillin-binding protein 2x; assay: Displacement of Biocillin FL from Streptococcus pneumoniae 3009 PBP2X
[12] = target: T2, Penicillin-binding protein 2x; assay: Displacement of Biocillin FL from Streptococcus pneumoniae 1076 PBP2X
[13] = Displacement of Biocillin FL from Streptococcus pneumoniae 2527 PBP2A
[14] = Displacement of Biocillin FL from Streptococcus pneumoniae 1076 PBP2A
[15] = target: T3, Penicillin-binding protein 2B (Streptococcus pneumoniae serotype 4 (strain ATCC BAA-334 / TIGR4), UniProt P0A3M5); assay: Displacement of Biocillin FL from Streptococcus pneumoniae 24 PBP2B
T3 sequence (P0A3M5 whole entry): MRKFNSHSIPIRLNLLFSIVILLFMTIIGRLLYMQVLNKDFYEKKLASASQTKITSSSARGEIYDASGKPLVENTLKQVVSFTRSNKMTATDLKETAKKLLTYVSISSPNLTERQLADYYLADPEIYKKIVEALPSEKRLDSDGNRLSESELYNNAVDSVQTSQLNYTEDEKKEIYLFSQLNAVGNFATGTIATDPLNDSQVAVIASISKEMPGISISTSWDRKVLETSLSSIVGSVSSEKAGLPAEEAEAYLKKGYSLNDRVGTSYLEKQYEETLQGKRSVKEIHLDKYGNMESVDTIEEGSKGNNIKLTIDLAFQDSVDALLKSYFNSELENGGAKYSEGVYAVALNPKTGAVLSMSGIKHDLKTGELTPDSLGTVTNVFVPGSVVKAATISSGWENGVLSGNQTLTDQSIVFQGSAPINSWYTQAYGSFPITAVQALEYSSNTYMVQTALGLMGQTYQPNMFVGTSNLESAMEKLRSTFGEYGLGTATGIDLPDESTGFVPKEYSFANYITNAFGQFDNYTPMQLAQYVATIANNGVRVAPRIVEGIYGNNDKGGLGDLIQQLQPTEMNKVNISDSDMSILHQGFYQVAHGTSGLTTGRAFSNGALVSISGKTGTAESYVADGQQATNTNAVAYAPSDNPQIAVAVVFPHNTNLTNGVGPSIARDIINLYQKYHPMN

[16] = target: T3, Penicillin-binding protein 2B; assay: Displacement of Biocillin FL from Streptococcus pneumoniae 2527 PBP2B
[17] = Displacement of Biocillin FL from Streptococcus pneumoniae 3413 PBP3
[18] = Displacement of Biocillin FL from Streptococcus pneumoniae 2527 PBP3
[19] = Displacement of Biocillin FL from Streptococcus pneumoniae 3665 PBP3
[20] = Displacement of Biocillin FL from Streptococcus pneumoniae 1076 PBP3
[21] = Displacement of Biocillin FL from Streptococcus pneumoniae 1077 PBP3

Compound | MIC (Streptococcus pneumoniae [1]) [µg/mL] | MIC (Streptococcus pneumoniae [2]) [µg/mL] | MIC (Streptococcus pneumoniae [3]) [µg/mL] | IC50 [4] [nM] | IC50 [5] [nM] | IC50 [6] [µg/mL] | IC50 [7] [µg/mL] | IC50 [8] [µg/mL] | IC50 [9] [nM] | IC50 [10] [nM] | IC50 [11] [nM] | IC50 [12] [nM] | IC50 [13] [µg/mL] | IC50 [14] [µg/mL] | IC50 [15] [nM] | IC50 [16] [nM] | IC50 [17] [µg/mL] | IC50 [18] [µg/mL] | IC50 [19] [µg/mL] | IC50 [20] [µg/mL] | further results
CC1(C)S[C@@H]2[C@H](NC(=O)[C@H](N)c3ccc(O)cc3)C(=O)N2[C@H]1C(=O)O [AMOXICILLIN] | 1 (≈ 2.74 µM) | 2 (≈ 5.47 µM) | 4 (≈ 10.9 µM) | 339 | 46.5 | 1.103 (≈ 3.02 µM) | 0.116 (≈ 0.317 µM) | 0.165 (≈ 0.452 µM) | 170 | 49.3 | 21.9 | 101 | 0.051 (≈ 0.14 µM) | 0.08 (≈ 0.219 µM) | 482 | 90.3 | 0.029 (≈ 0.0794 µM) | 0.022 (≈ 0.0602 µM) | 0.019 (≈ 0.052 µM) | 0.051 (≈ 0.14 µM) | IC50 [21]: 0.022 µg/mL (≈ 0.0602 µM)
CO/N=C(\C(=O)N[C@@H]1C(=O)N2C(C(=O)O)=C(COC(N)=O)CS[C@H]12)c1ccco1 [CEFUROXIME] | 8 (≈ 18.9 µM) | 4 (≈ 9.43 µM) | 8 (≈ 18.9 µM) | 2.36 | 386 | 0.923 (≈ 2.17 µM) | 0.038 (≈ 0.0895 µM) | 0.075 (≈ 0.177 µM) | 9.43 | 33 | 0.0943 | 4.71 | 0.01 (≈ 0.0236 µM) | 0.004 (≈ 0.00943 µM) | 89.5 | 6230 | 0.004 (≈ 0.00943 µM) | 0.038 (≈ 0.0895 µM) | 0.047 (≈ 0.111 µM) | 0.021 (≈ 0.0495 µM) | IC50 [21]: 0.071 µg/mL (≈ 0.167 µM)
C[C@@H](O)[C@H]1C(=O)N2C(C(=O)O)=C([C@H]3CCCO3)S[C@H]12 [FAROPENEM] | 1 (≈ 3.5 µM) | 1 (≈ 3.5 µM) | 0.03 (≈ 0.105 µM) | 56.1 | 52.6 | 0.06 (≈ 0.21 µM) | 0.005 (≈ 0.0175 µM) | 0.001 (≈ 0.0035 µM) | 1520 | 137 | 214 | 221 | 0.025 (≈ 0.0876 µM) | 0.035 (≈ 0.123 µM) | 116 | 35 | 0.003 (≈ 0.0105 µM) | 0.007 (≈ 0.0245 µM) | 0.005 (≈ 0.0175 µM) | 0.015 (≈ 0.0526 µM) | IC50 [21]: 0.006 µg/mL (≈ 0.021 µM)
C[C@@H](O)[C@H]1C(=O)N2C(C(=O)O)=C(SCCNC=N)C[C@H]12 [IMIPENEM ANHYDROUS] | 0.25 (≈ 0.835 µM) | 0.125 (≈ 0.418 µM) | 0.125 (≈ 0.418 µM) | 2070 | 174 | 0.71 (≈ 2.37 µM) | 0.182 (≈ 0.608 µM) | 0.108 (≈ 0.361 µM) | 1430 | 635 | 334 | 197 | 0.059 (≈ 0.197 µM) | 0.054 (≈ 0.18 µM) | 441 | 207 | 0.195 (≈ 0.651 µM) | 0.034 (≈ 0.114 µM) | 0.171 (≈ 0.571 µM) | 0.032 (≈ 0.107 µM) | IC50 [21]: 0.219 µg/mL (≈ 0.732 µM)
CC1(C)S[C@@H]2[C@H](NC(=O)Cc3ccccc3)C(=O)N2[C@H]1C(=O)O [PENICILLIN G] | 2 (≈ 5.98 µM) | 4 (≈ 12 µM) | 16 (≈ 47.8 µM) | 59.8 | 26.9 | 0.248 (≈ 0.742 µM) | 0.021 (≈ 0.0628 µM) | 0.01 (≈ 0.0299 µM) | 1920 | 20.9 | 32.9 | 29.9 | 0.023 (≈ 0.0688 µM) | 0.02 (≈ 0.0598 µM) | 332 | 287 | 0.01 (≈ 0.0299 µM) | 0.014 (≈ 0.0419 µM) | 0.01 (≈ 0.0299 µM) | 0.016 (≈ 0.0478 µM) | IC50 [21]: 0.01 µg/mL (≈ 0.0299 µM)
